Experimental data from the supplement of paper PMC10307832.

Columns and labels:
Experiment in all cases: relative viability (nuclei count vs DMSO), 5 days (fraction); higher = more cells survive
NCI-H1975 = system: NCI-H1975
In short: (§1)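 Relative viability is defined as nuclei in treated wells over nuclei in vehicle wells. Duplicate plates were run and medians reported. Lung cancer cell lines in 1536-well plates were dosed by pin tool one day after seeding, with one drug or with a fixed anchor-drug dose plus five library-drug doses (not always all listed) in √10 steps, and nuclei were counted after 5 days.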

NCI-H1623 = system: NCI-H1623
In short: as §1

NCI-H1734 = system: NCI-H1734
In short: as §1

LXF-289 = system: LXF-289
In short: as §1

A549 = system: A549
In short: as §1

NCI-H1650 = system: NCI-H1650
In short: as §1

HARA = system: HARA
In short: as §1

201T = system: 201T
In short: as §1

HCC-78 = system: HCC-78
In short: as §1

NCI-H1648 = system: NCI-H1648
In short: as §1

COCC1(CO)C(=O)C2CCN1CC2 (stereo not given) [PRIMA-1MET] + N=C(N)NC(=N)NCCc1ccccc1 [Phenformin] (partner 250 µM)
relative viability (NCI-H1975; first compound 0.2 µM): 0.41 | relative viability (NCI-H1975; first compound 0.6325 µM): 0.4 | relative viability (NCI-H1975; first compound 2 µM): 0.381 | relative viability (NCI-H1975; first compound 6.325 µM): 0.42 | relative viability (NCI-H1975; first compound 20 µM): 0.194 | relative viability (NCI-H1623; first compound 0.2 µM): 0.522 | relative viability (NCI-H1623; first compound 0.6325 µM): 0.603 | relative viability (NCI-H1623; first compound 2 µM): 0.544 | relative viability (NCI-H1623; first compound 6.325 µM): 0.503 | relative viability (NCI-H1623; first compound 20 µM): 0.457 | relative viability (NCI-H1734; first compound 0.2 µM): 0.385 | relative viability (NCI-H1734; first compound 0.6325 µM): 0.328 | relative viability (NCI-H1734; first compound 2 µM): 0.324 | relative viability (NCI-H1734; first compound 6.325 µM): 0.361 | relative viability (NCI-H1734; first compound 20 µM): 0.058 | relative viability (LXF-289; first compound 0.2 µM): 0.491 | relative viability (LXF-289; first compound 0.6325 µM): 0.482 | relative viability (LXF-289; first compound 2 µM): 0.428 | relative viability (LXF-289; first compound 6.325 µM): 0.513 | relative viability (LXF-289; first compound 20 µM): 0.456 | relative viability (A549; first compound 0.2 µM): 0.165 | relative viability (A549; first compound 0.6325 µM): 0.173 | relative viability (A549; first compound 2 µM): 0.204 | relative viability (A549; first compound 6.325 µM): 0.148 | relative viability (A549; first compound 20 µM): 0.0121 | relative viability (NCI-H1650; first compound 0.2 µM): 0.569 | relative viability (NCI-H1650; first compound 0.6325 µM): 0.443 | relative viability (NCI-H1650; first compound 2 µM): 0.453 | relative viability (NCI-H1650; first compound 6.325 µM): 0.434 | relative viability (NCI-H1650; first compound 20 µM): 0.0427 | relative viability (HARA; first compound 0.2 µM): 0.526 | relative viability (HARA; first compound 0.6325 µM): 0.421 | relative viability (HARA; first compound 6.325 µM): 0.538 | relative viability (HARA; first compound 20 µM): 0.409 | relative viability (201T; first compound 0.2 µM): 0.444 | relative viability (201T; first compound 0.6325 µM): 0.452 | relative viability (201T; first compound 2 µM): 0.397 | relative viability (201T; first compound 6.325 µM): 0.452 | relative viability (201T; first compound 20 µM): 0.464 | relative viability (HCC-78; first compound 0.2 µM): 0.7 | relative viability (HCC-78; first compound 0.6325 µM): 0.648 | relative viability (HCC-78; first compound 6.325 µM): 0.658 | relative viability (HCC-78; first compound 20 µM): 0.599

COCC1(CO)C(=O)C2CCN1CC2 (stereo not given) [PRIMA-1MET] + CCNC(=O)c1noc(-c2cc(C(C)C)c(O)cc2O)c1-c1ccc(CN2CCOCC2)cc1 [Luminespib] (partner 0.01 µM)
relative viability (NCI-H1975; first compound 0.2 µM): 0.33 | relative viability (NCI-H1975; first compound 0.6325 µM): 0.171 | relative viability (NCI-H1975; first compound 2 µM): 0.21 | relative viability (NCI-H1975; first compound 6.325 µM): 0.252 | relative viability (NCI-H1975; first compound 20 µM): 0.154 | relative viability (NCI-H1623; first compound 0.2 µM): 0.592 | relative viability (NCI-H1623; first compound 0.6325 µM): 0.37 | relative viability (NCI-H1623; first compound 2 µM): 0.446 | relative viability (NCI-H1623; first compound 6.325 µM): 0.426 | relative viability (NCI-H1623; first compound 20 µM): 0.247 | relative viability (NCI-H1734; first compound 0.2 µM): 0.214 | relative viability (NCI-H1734; first compound 0.6325 µM): 0.18 | relative viability (NCI-H1734; first compound 2 µM): 0.192 | relative viability (NCI-H1734; first compound 6.325 µM): 0.172 | relative viability (NCI-H1734; first compound 20 µM): 0.0435 | relative viability (LXF-289; first compound 0.2 µM): 0.878 | relative viability (LXF-289; first compound 0.6325 µM): 0.673 | relative viability (LXF-289; first compound 2 µM): 0.74 | relative viability (LXF-289; first compound 6.325 µM): 0.712 | relative viability (LXF-289; first compound 20 µM): 0.624 | relative viability (NCI-H1650; first compound 0.2 µM): 0.228 | relative viability (NCI-H1650; first compound 0.6325 µM): 0.212 | relative viability (NCI-H1650; first compound 2 µM): 0.185 | relative viability (NCI-H1650; first compound 6.325 µM): 0.193 | relative viability (NCI-H1650; first compound 20 µM): 0.123 | relative viability (HARA; first compound 0.2 µM): 0.619 | relative viability (HARA; first compound 0.6325 µM): 0.0534 | relative viability (HARA; first compound 6.325 µM): 0.675 | relative viability (HARA; first compound 20 µM): 0.654 | relative viability (201T; first compound 0.2 µM): 1.17 | relative viability (201T; first compound 0.6325 µM): 0.937 | relative viability (201T; first compound 2 µM): 0.926 | relative viability (201T; first compound 6.325 µM): 1.05 | relative viability (201T; first compound 20 µM): 1.06

COCC1(CO)C(=O)C2CCN1CC2 (stereo not given) [PRIMA-1MET] + Nc1nc2[nH]cc(CCc3ccc(C(=O)N[C@@H](CCC(=O)O)C(=O)O)cc3)c2c(=O)[nH]1 [Pemetrexed] (partner 0.2 µM)
relative viability (NCI-H1975; first compound 0.2 µM): 0.31 | relative viability (NCI-H1975; first compound 0.6325 µM): 0.266 | relative viability (NCI-H1975; first compound 2 µM): 0.28 | relative viability (NCI-H1975; first compound 6.325 µM): 0.292 | relative viability (NCI-H1975; first compound 20 µM): 0.282 | relative viability (NCI-H1734; first compound 0.2 µM): 0.403 | relative viability (NCI-H1734; first compound 0.6325 µM): 0.416 | relative viability (NCI-H1734; first compound 2 µM): 0.433 | relative viability (NCI-H1734; first compound 6.325 µM): 0.407 | relative viability (NCI-H1734; first compound 20 µM): 0.0543 | relative viability (LXF-289; first compound 0.2 µM): 0.967 | relative viability (LXF-289; first compound 0.6325 µM): 0.891 | relative viability (LXF-289; first compound 2 µM): 1.09 | relative viability (LXF-289; first compound 6.325 µM): 0.954 | relative viability (LXF-289; first compound 20 µM): 0.875 | relative viability (NCI-H1650; first compound 0.2 µM): 0.407 | relative viability (NCI-H1650; first compound 0.6325 µM): 0.306 | relative viability (NCI-H1650; first compound 2 µM): 0.399 | relative viability (NCI-H1650; first compound 6.325 µM): 0.374 | relative viability (NCI-H1650; first compound 20 µM): 0.304 | relative viability (NCI-H1648; first compound 0.2 µM): 0.72 | relative viability (NCI-H1648; first compound 2 µM): 0.776 | relative viability (NCI-H1648; first compound 20 µM): 0.637 | relative viability (HARA; first compound 0.2 µM): 0.278 | relative viability (HARA; first compound 0.6325 µM): 0.232 | relative viability (HARA; first compound 2 µM): 0.209 | relative viability (HARA; first compound 6.325 µM): 0.243 | relative viability (HARA; first compound 20 µM): 0.247 | relative viability (201T; first compound 0.2 µM): 0.302 | relative viability (201T; first compound 0.6325 µM): 0.339 | relative viability (201T; first compound 2 µM): 0.332 | relative viability (201T; first compound 6.325 µM): 0.346 | relative viability (201T; first compound 20 µM): 0.328 | relative viability (HCC-78; first compound 0.2 µM): 0.916 | relative viability (HCC-78; first compound 0.6325 µM): 0.886 | relative viability (HCC-78; first compound 2 µM): 0.914 | relative viability (HCC-78; first compound 6.325 µM): 0.832 | relative viability (HCC-78; first compound 20 µM): 0.864
